From patent publication US20250034197A1, “NUCLEOSIDE-DIPHOSPHATE-HEPTOSE COMPOUNDS FOR TREATING CONDITIONS ASSOCIATED WITH ALPK1 ACTIVITY” (PYROTECH (BEIJING) BIOTECHNOLOGY CO., LTD., priority 2021, published 2025)

Target: T1, ALPK1 (Homo sapiens, UniProt Q96QP1)
T1 construct: endogenous in cells; host or cells: 293T cells
Assay: NF-κB luciferase reporter assay in 293T cells (cellular assay)
Type: cell-based
Procedure: The compounds disclosed herein activate NF-κB through ALPK1-TIFA axis as determined by the NF-κB luciferase reporter and TIFA phosphorylation. For NF-κB luciferase assay, the plasmids (pNL2.2-BII-5RE-Luc), and control vector (pRL-TK) were transfected into 293T cells with the Jetprime reagents (Polyplus). NF-κB luciferase activity was determined using the dual luciferase assay kit (Promega) according to the manufacturer's instructions. TIFA phosphorylation upon the treatment with the compounds disclosed herein described in Table 1, were assayed with immunoblotting. Briefly, for the immunoblotting assay, the 293T cells were seeded in 12-well-plates and cultured for 16 h, and treated with indicated compounds for another 2 hours. Subsequently, the cells were collected and sampled as the regular western-blotting method, immunoblotted by the TIFA phosphorylation specific antibody (ab214815, Abcam).
The EC50 of the compounds disclosed herein were determined by the NF-κB luciferase reporter assay using 293T cells described supra. Compounds with indicated concentrations were added to the culture medium of 293T and the NF-κB luciferase activity was determined using the dual luciferase assay kit (Promega) according to the manufacturer's instructions. […] These chemical entities induce strong activation of the immune regulator NF-κB.

T1 sequence (Q96QP1 whole entry): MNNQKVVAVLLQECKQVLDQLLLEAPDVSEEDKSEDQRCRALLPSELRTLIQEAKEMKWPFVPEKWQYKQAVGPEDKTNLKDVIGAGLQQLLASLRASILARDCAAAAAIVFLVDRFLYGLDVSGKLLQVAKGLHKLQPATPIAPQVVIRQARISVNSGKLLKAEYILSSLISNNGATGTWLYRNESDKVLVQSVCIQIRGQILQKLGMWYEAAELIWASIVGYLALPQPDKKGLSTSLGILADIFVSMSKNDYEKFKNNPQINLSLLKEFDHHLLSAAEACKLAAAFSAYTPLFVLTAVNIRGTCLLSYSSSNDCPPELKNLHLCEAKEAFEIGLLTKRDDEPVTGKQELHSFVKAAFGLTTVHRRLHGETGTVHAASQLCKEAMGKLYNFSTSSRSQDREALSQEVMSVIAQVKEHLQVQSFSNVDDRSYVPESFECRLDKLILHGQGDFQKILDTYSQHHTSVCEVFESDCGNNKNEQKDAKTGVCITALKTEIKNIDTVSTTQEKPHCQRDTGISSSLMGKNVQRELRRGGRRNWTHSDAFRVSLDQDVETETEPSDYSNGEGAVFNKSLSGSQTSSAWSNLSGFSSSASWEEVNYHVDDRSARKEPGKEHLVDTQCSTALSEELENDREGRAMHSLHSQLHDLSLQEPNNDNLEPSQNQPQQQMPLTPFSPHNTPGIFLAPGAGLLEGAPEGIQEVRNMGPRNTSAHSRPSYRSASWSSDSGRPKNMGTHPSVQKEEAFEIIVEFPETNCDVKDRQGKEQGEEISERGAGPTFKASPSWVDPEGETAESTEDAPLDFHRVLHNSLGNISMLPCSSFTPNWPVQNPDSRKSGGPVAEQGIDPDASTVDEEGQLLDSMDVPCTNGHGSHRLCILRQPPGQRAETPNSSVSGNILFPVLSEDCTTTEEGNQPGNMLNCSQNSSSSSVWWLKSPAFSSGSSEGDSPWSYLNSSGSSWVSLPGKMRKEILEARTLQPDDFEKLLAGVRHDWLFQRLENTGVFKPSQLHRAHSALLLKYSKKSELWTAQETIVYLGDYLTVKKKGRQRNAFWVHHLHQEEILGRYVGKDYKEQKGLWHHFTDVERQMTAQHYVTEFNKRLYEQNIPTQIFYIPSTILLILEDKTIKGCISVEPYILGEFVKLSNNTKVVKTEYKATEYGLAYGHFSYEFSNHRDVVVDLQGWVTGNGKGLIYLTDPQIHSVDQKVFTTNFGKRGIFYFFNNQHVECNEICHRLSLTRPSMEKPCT

| EC50 [nM] | Compound |
| --- | --- |
| 21 | C=C[C@@]1(O)[C@H](O)[C@@H](CO[P@](=O)(S)OP(=O)(O)OC2OC([C@H](COC(C)=O)OC(C)=O)C(OC(C)=O)C(OC(C)=O)C2OC(C)=O)O[C@H]1n1cnc2c(N)ncnc21 (single isomer, unassigned) [Example 31O] |
| 7.23 | C=C[C@@]1(O)[C@H](O)[C@@H](CO[P@@](=O)(S)OP(=O)(O)OC2OC([C@H](COC(C)=O)OC(C)=O)C(OC(C)=O)C(OC(C)=O)C2OC(C)=O)O[C@H]1n1cnc2c(N)ncnc21 (single isomer, unassigned) [Example 31P] |
| 16.9 | CC(=O)OC[C@H](OC(C)=O)C1OC(OP(=O)(O)O[P@@](=O)(S)OC[C@H]2O[C@@H](n3cnc4c(N)ncnc43)[C@H](N(C)C)[C@@H]2O)C(OC(C)=O)C(OC(C)=O)C1OC(C)=O (single isomer, unassigned) [Example 35G] |
| 16.7 | CC(=O)OC[C@H](OC(C)=O)C1OC(OP(=O)(O)O[P@](=O)(S)OC[C@H]2O[C@@H](n3cnc4c(N)ncnc43)[C@H](N(C)C)[C@@H]2O)C(OC(C)=O)C(OC(C)=O)C1OC(C)=O (single isomer, unassigned) [Example 35H] |
| 15.2 | C#C[C@@]1(F)[C@H](O)[C@@H](COP(=O)(S)OP(=O)(O)OC2OC([C@H](COC(C)=O)OC(C)=O)C(OC(C)=O)C(OC(C)=O)C2OC(C)=O)O[C@H]1n1cnc2c(N)ncnc21 (stereo partly drawn) [Example 21C] |
| 244 | C#C[C@@]1(O)[C@H](O)[C@@H](COP(=O)(S)OP(=O)(O)OC2OC([C@@H](F)COC(C)=O)C(OC(C)=O)C(OC(C)=O)C2OC(C)=O)O[C@H]1n1cnc2c(N)ncnc21 (stereo partly drawn) [Example 25A] |
| 20 | C#C[C@@]1(O)[C@H](O)[C@@H](COP(=O)(S)OP(=O)(O)OC2OC([C@H](COC(C)=O)OC(C)=O)C(OC(C)=O)C(OC(C)=O)C2OC(C)=O)O[C@H]1n1cnc2c(N)ncnc21 (stereo partly drawn) [Example 25C] |
| 0.15 | C=C[C@@]1(O)[C@H](O)[C@@H](COP(=O)(S)OP(=O)(O)OC2OC([C@H](COC(=O)CC)OC(C)=O)C(OC(C)=O)C(OC(C)=O)C2OC(C)=O)O[C@H]1n1cnc2c(N)ncnc21 (stereo partly drawn) [Example 31H] |
| 2.99 | C=C[C@@]1(O)[C@H](O)[C@@H](COP(=O)(S)OP(=O)(O)OC2OC([C@H](COC(=O)C(C)C)OC(=O)C(C)C)C(OC(C)=O)C(OC(C)=O)C2OC(C)=O)O[C@H]1n1cnc2c(N)ncnc21 (stereo partly drawn) [Example 31M] |
| 40.2 | CC(=O)OC[C@H](OC(C)=O)C1OC(OP(=O)(O)OP(=O)(S)OC[C@H]2O[C@@H](n3cnc4c(N)ncnc43)[C@H](N)[C@@H]2O)C(OC(C)=O)C(OC(C)=O)C1OC(C)=O (stereo partly drawn) [Example 33C] |
| 434 | CC(=O)N[C@@H]1[C@H](O)[C@@H](COP(=O)(S)OP(=O)(O)OC2OC([C@H](COC(C)=O)OC(C)=O)C(OC(C)=O)C(OC(C)=O)C2OC(C)=O)O[C@H]1n1cnc2c(N)ncnc21 (stereo partly drawn) [Example 33E] |
| 345 | CN[C@@H]1[C@H](O)[C@@H](COP(=O)(S)OP(=O)(O)OC2OC([C@H](COC(C)=O)OC(C)=O)C(OC(C)=O)C(OC(C)=O)C2OC(C)=O)O[C@H]1n1cnc2c(N)ncnc21 (stereo partly drawn) [Example 34C] |
| 34.2 | CC(=O)OC[C@H](F)C1OC(OP(=O)(O)O[P@@](=O)(S)OC[C@H]2O[C@@H](n3cnc4c(N)ncnc43)[C@H](N(C)C)[C@@H]2O)C(OC(C)=O)C(OC(C)=O)C1OC(C)=O (stereo partly drawn) [Example 35K] |
| 1620 | CC(=O)OC[C@H](OC(C)=O)C1OC(OP(=O)(O)OP(=O)(S)OC[C@H]2O[C@@H](n3cnc4c(N)ncnc43)[C@H](N3CCC3)[C@@H]2O)C(OC(C)=O)C(OC(C)=O)C1OC(C)=O (stereo partly drawn) [Example 36C] |
| 1060 | C=C=C[C@@]1(O)[C@H](O)[C@@H](COP(=O)(S)OP(=O)(O)OC2OC([C@H](COC(C)=O)OC(C)=O)C(OC(C)=O)C(OC(C)=O)C2OC(C)=O)O[C@H]1n1cnc2c(N)ncnc21 (stereo partly drawn) [Example 97C] |

Further lines, the compound ahead of its results:

| Compound | EC50 [nM] |
| --- | --- |
| CN(C)[C@@H]1[C@H](O)[C@@H](CO[P@](=O)(S)OP(=O)(O)OC2OC([C@@H](O)CO)C(O)C(O)C2O)O[C@H]1n1cnc2c(N)ncnc21 (single isomer, unassigned) [Example 35I] | 10.9 |
| CN(C)[C@@H]1[C@H](O)[C@@H](CO[P@@](=O)(S)OP(=O)(O)OC2OC([C@@H](O)CO)C(O)C(O)C2O)O[C@H]1n1cnc2c(N)ncnc21 (single isomer, unassigned) [Example 35J] | 10.3 |
| C=C=C[C@@]1(O)[C@H](O)[C@@H](COP(=O)(S)OP(=O)(O)OC2OC([C@@H](O)CO)C(O)C(O)C2O)O[C@H]1n1cnc2c(N)ncnc21 (single isomer, unassigned) [Example 97D] | > 1000 |
| C=C[C@@]1(OC)[C@H](O)[C@@H](COP(=O)(S)OP(=O)(O)OC2OC([C@H](COC(C)=O)OC(C)=O)C(OC(C)=O)C(OC(C)=O)C2OC(C)=O)O[C@@H]1n1ccc(=O)[nH]c1=O (stereo in doubt) [Example 45E] | 7.77 |
| C#C[C@@]1(F)[C@H](O)[C@@H](COP(=O)(S)OP(=O)(O)OC2OC([C@H](COC(C)=O)OC(C)=O)C(OC(C)=O)C(OC(C)=O)C2OC(C)=O)O[C@H]1n1ccc(=O)[nH]c1=O (stereo partly drawn) [Example 22C] | 49.1 |
| C#C[C@@]1(O)[C@H](O)[C@@H](COP(=O)(S)OP(=O)(O)OC2OC([C@H](COC(C)=O)OC(C)=O)C(OC(C)=O)C(OC(C)=O)C2OC(C)=O)O[C@H]1n1ccc(=O)[nH]c1=O (stereo partly drawn) [Example 26C] | 45.5 |
| C#C[C@]1(O)[C@H](O)[C@@H](COP(=O)(S)OP(=O)(O)OC2OC([C@H](COC(C)=O)OC(C)=O)C(OC(C)=O)C(OC(C)=O)C2OC(C)=O)O[C@H]1n1ccc(=O)[nH]c1=O (stereo partly drawn) [Example 26E] | > 3000 |
| C=C[C@@]1(O)[C@H](O)[C@@H](COP(=O)(OP(=O)(O)OC2OC([C@H](COC(C)=O)OC(C)=O)C(OC(C)=O)C(OC(C)=O)C2OC(C)=O)SCOC(=O)C(C)C)O[C@H]1n1cnc2c(N)ncnc21 (stereo partly drawn) [Example 31K] | 57.6 |
| C=C[C@@]1(O)[C@H](O)[C@@H](COP(=O)(OP(=O)(O)OC2OC([C@H](COC(C)=O)OC(C)=O)C(OC(C)=O)C(OC(C)=O)C2OC(C)=O)SCOC(=O)OC(C)C)O[C@H]1n1cnc2c(N)ncnc21 (stereo partly drawn) [Example 31L] | 13.8 |
| CN[C@@H]1[C@H](O)[C@@H](COP(=O)(S)OP(=O)(O)OC2OC([C@@H](O)CO)C(O)C(O)C2O)O[C@H]1n1cnc2c(N)ncnc21 (stereo partly drawn) [Example 34D] | 167 |
| CN(C)[C@@H]1[C@H](O)[C@@H](COP(=O)(S)OP(=O)(O)OC2OC([C@@H](O)CO)C(O)C(O)C2O)O[C@H]1n1cnc2c(N)ncnc21 (stereo partly drawn) [Example 35D] | 38.7 |
| CC(=O)OC[C@H](OC(C)=O)C1OC(OP(=O)(O)OP(=O)(S)OC[C@H]2O[C@@H](n3cnc4c(N)ncnc43)[C@H](N3CCCC3)[C@@H]2O)C(OC(C)=O)C(OC(C)=O)C1OC(C)=O (stereo partly drawn) [Example 37C] | > 3000 |
| Nc1ncnc2c1ncn2[C@@H]1O[C@H](COP(=O)(S)OP(=O)(O)OC2OC([C@@H](O)CO)C(O)C(O)C2O)[C@@H](O)[C@H]1N1CCCC1 (stereo partly drawn) [Example 37D] | > 3000 |
| CC(=O)OC[C@H](OC(C)=O)C1OC(OP(=O)(O)OP(=O)(S)OC[C@H]2O[C@@H](n3ccc(=O)[nH]c3=O)[C@H](N(C)C)[C@@H]2O)C(OC(C)=O)C(OC(C)=O)C1OC(C)=O (stereo partly drawn) [Example 40C] | 431 |
| CN(C)[C@@H]1[C@H](O)[C@@H](COP(=O)(S)OP(=O)(O)OC2OC([C@@H](O)CO)C(O)C(O)C2O)O[C@H]1n1ccc(=O)[nH]c1=O (stereo partly drawn) [Example 40D] | 713 |
| C=C[C@@]1(OC)[C@H](O)[C@@H](COP(=O)(S)OP(=O)(O)OC2OC([C@H](COC(C)=O)OC(C)=O)C(OC(C)=O)C(OC(C)=O)C2OC(C)=O)O[C@H]1n1ccc(=O)[nH]c1=O (stereo partly drawn) [Example 45C] | 9.58 |
| C#C[C@@]1(OC)[C@H](O)[C@@H](COP(=O)(S)OP(=O)(O)OC2OC([C@H](COC(C)=O)OC(C)=O)C(OC(C)=O)C(OC(C)=O)C2OC(C)=O)O[C@H]1n1ccc(=O)[nH]c1=O (stereo partly drawn) [Example 95C] | 34.8 |
| C=C=C[C@@]1(O)[C@H](O)[C@@H](COP(=O)(S)OP(=O)(O)OC2OC([C@H](COC(C)=O)OC(C)=O)C(OC(C)=O)C(OC(C)=O)C2OC(C)=O)O[C@H]1n1ccc(=O)[nH]c1=O (stereo partly drawn) [Example 98C] | 2310 |
| C=C[C@@]1(N=[N+]=[N-])[C@H](O)[C@@H](COP(=O)(S)OP(=O)(O)OC2OC([C@H](COC(C)=O)OC(C)=O)C(OC(C)=O)C(OC(C)=O)C2OC(C)=O)O[C@H]1n1ccc(=O)[nH]c1=O (stereo partly drawn) [Example 108C] | > 3000 |
| C#C[C@@]1(N=[N+]=[N-])[C@H](O)[C@@H](COP(=O)(S)OP(=O)(O)OC2OC([C@H](COC(C)=O)OC(C)=O)C(OC(C)=O)C(OC(C)=O)C2OC(C)=O)O[C@H]1n1ccc(=O)[nH]c1=O (stereo partly drawn) [Example 110C] | > 3000 |
| CC(=O)OC[C@H](OC(C)=O)C1OC(OP(=O)(O)OP(=O)(S)OC[C@H]2O[C@@H](n3ccc(=O)[nH]c3=O)[C@](C)(N)[C@@H]2O)C(OC(C)=O)C(OC(C)=O)C1OC(C)=O (stereo partly drawn) [Example 112C] | 360 |
| C=C[C@@]1(O)[C@H](O)[C@@H](COP(=O)(S)OP(=O)(O)OC2OC([C@H](COC(C)=O)OC(C)=O)C(OC(C)=O)C(OC(C)=O)C2OC(C)=O)O[C@H]1c1coc2c(N)ncnc12 (stereo partly drawn) [Example 125C] | 2.89 |
| C=C[C@@]1(O)[C@H](O)[C@@H](COP(=O)(S)OP(=O)(O)OC2OC([C@H](COC(C)=O)OC(C)=O)C(OC(C)=O)C(OC(C)=O)C2OC(C)=O)O[C@H]1c1csc(C(N)=O)c1N (stereo partly drawn) [Example 126C] | 231 |
| C=C[C@@]1(O)[C@H](O)[C@@H](COP(=O)(S)OP(=O)(O)OC2OC([C@H](COC(C)=O)OC(C)=O)C(OC(C)=O)C(OC(C)=O)C2OC(C)=O)O[C@H]1c1cnn2c(N)ncnc12 (stereo partly drawn) [Example 128C] | 3.62 |
